Reference: US8829007B2 (priority 2009, dated 2014)

These molecules were tested on influenza A virus (A/PR/8/34) (assay: microbe, parasite or virus in culture). Details: Influenza A virus, PR/8, MDCK, MDCK cells infected with A/PR/8/34, cell protection (CPE); read-out: IC50 (mean all).
Format: cell-based

Molecule | IC50
OC1CCCC[C@@H]1CNc1nc(-c2c[nH]c3ncc(Cl)cc23)ncc1F (stereo partly drawn) [Compound 12, (2R)-2-((2-(5-chloro-1H-pyrrolo[2,3-b]pyridin-3-yl)-5-fluoropyrimidin-4-ylamino)methyl)cyclohexanol] | > 20 µM
OC1CCCCC1Nc1nc(-c2c[nH]c3ncc(Cl)cc23)ncc1F (stereo not shown) [Compound 13, 2-(2-(5-chloro-1H-pyrrolo[2,3-b]pyridin-3-yl)-5-fluoropyrimidin-4-ylamino)cyclohexanol] | < 5 µM
CCOC(=O)CCCC(=O)N1CCC[C@@H](CNc2nc(-c3c[nH]c4ncc(Cl)cc34)ncc2F)C1 [Compound 19, (S)-ethyl 5-(3-((2-(5-chloro-1H-pyrrolo[2,3-b]pyridin-3-yl)-5-fluoropyrimidin-4-ylamino)methyl)piperidin-1-yl)-5-oxopentanoate] | > 20 µM
CC(C)(C)NC(=O)N1CCC[C@@H](CNc2nc(-c3c[nH]c4ncc(Cl)cc34)ncc2F)C1 [Compound 20, (S)—N-tert-butyl-3-((2-(5-chloro-1H-pyrrolo[2,3-b]pyridin-3-3-yl)-5-fluoropyrimidin-4-ylamino)methyl)piperidine-1-carboxamide] | 5 to 20 µM
COCCOC(=O)N1CCC[C@@H](CNc2nc(-c3c[nH]c4ncc(Cl)cc34)ncc2F)C1 [Compound 24, (S)-2-methoxyethyl 3-((2-(5-chloro-1H-pyrrolo[2,3-b]pyridin-3-yl)-5-fluoropyrimidin-4-ylamino)methyl)piperidine-1-carboxylate] | > 20 µM
CNC(=O)N1CCC[C@@H](CNc2nc(-c3c[nH]c4ncc(Cl)cc34)ncc2F)C1 [Compound 29, (S)-3-((2-(5-chloro-1H-pyrrolo[2,3-b]pyridin-3-yl)-5-fluoropyrimidin-4-ylamino)methyl)-N-methylpiperidine-1-carboxamide] | 5 to 20 µM
CC(C)C(=O)N1CCC[C@@H](CNc2nc(-c3c[nH]c4ncc(Cl)cc34)ncc2F)C1 [Compound 34, (S)-1-(3-((2-(5-chloro-1H-pyrrolo[2,3-b]pyridin-3-yl)-5-fluoropyrimidin-4-ylamino)methyl)piperidin-1-yl)-2-methylpropan-1-one] | < 5 µM
CC(C)OC(=O)N1CCC[C@@H](CNc2nc(-c3c[nH]c4ncc(Cl)cc34)ncc2F)C1 [Compound 35, (S)-isopropyl 3-((2-(5-chloro-1H-pyrrolo[2,3-b]pyridin-3-yl)-5-fluoropyrimidin-4-ylamino)methyl)piperidine-1-carboxylate] | > 20 µM
O=C(Nc1cccnc1)N1CCC[C@@H](CNc2nc(-c3c[nH]c4ncc(Cl)cc34)ncc2F)C1 [Compound 40, (S)-3-((2-(5-chloro-1H-pyrrolo[2,3-b]pyridin-3-yl)-5-fluoropyrimidin-4-ylamino)methyl)-N-(pyridin-3-yl)piperidine-1-carboxamide] | > 20 µM

Same assay, conditions: Influenza A virus, PR/8, MDCK, mean all; A/PR/8/34 infected MDCK cells, CPE assay; read-out: IC50

Molecule | IC50
CCC(=O)N[C@@H]1CCCC[C@@H]1Nc1nc(-c2c[nH]c3ncc(Cl)cc23)ncc1F (relative stereo) [Compound 333, N-[cis-2-[[2-(5-chloro-1H-pyrrolo[2,3-b]pyridin-3-yl)-5-fluoro-pyrimidin-4-yl]amino]cyclohexyl]propanamide] | 5 to 20 µM
CCCC(=O)N[C@@H]1CCCC[C@@H]1Nc1nc(-c2c[nH]c3ncc(Cl)cc23)ncc1F (relative stereo) [Compound 334, N-[cis-2-[[2-(5-chloro-1H-pyrrolo[2,3-b]pyridin-3-yl)-5-fluoro-pyrimidin-4-yl]amino]cyclohexyl]butanamide] | 5 to 20 µM
O=C(N[C@@H]1CCCC[C@@H]1Nc1nc(-c2c[nH]c3ncc(Cl)cc23)ncc1F)C1CCCC1 (relative stereo) [Compound 335, N-[cis-2-[[2-(5-chloro-1H-pyrrolo[2,3-b]pyridin-3-yl)-5-fluoro-pyrimidin-4-yl]amino]cyclohexyl]cyclopentanecarboxamide] | > 20 µM
O=C(N[C@@H]1CCCC[C@@H]1Nc1nc(-c2c[nH]c3ncc(Cl)cc23)ncc1F)c1ccccc1 (relative stereo) [Compound 336, N-[cis-2-[[2-(5-chloro-1H-pyrrolo[2,3-b]pyridin-3-yl)-5-fluoro-pyrimidin-4-yl]amino]cyclohexyl]benzamide] | > 20 µM
CCCS(=O)(=O)N[C@@H]1CCCC[C@@H]1Nc1nc(-c2c[nH]c3ncc(Cl)cc23)ncc1F (relative stereo) [Compound 338, N-[cis-2-[[2-(5-chloro-1H-pyrrolo[2,3-b]pyridin-3-yl)-5-fluoro-pyrimidin-4-yl]amino]cyclohexyl]propane-1-sulfonamide] | > 20 µM
CCCNC(=O)N[C@@H]1CCCC[C@@H]1Nc1nc(-c2c[nH]c3ncc(Cl)cc23)ncc1F (relative stereo) [Compound 339, 1-[cis-2-[[2-(5-chloro-1H-pyrrolo[2,3-b]pyridin-3-yl)-5-fluoro-pyrimidin-4-yl]amino]cyclohexyl]-3-propyl-urea] | 5 to 20 µM
CCC(=O)N[C@@H]1CCCC[C@@H]1Nc1nc(-c2c[nH]c3ncccc23)ncc1F (relative stereo) [Compound 341, N-[cis-2-[[5-fluoro-2-(1H-pyrrolo[2,3-b]pyridin-3-yl)pyrimidin-4-yl]amino]-cyclohexyl]propanamide] | > 20 µM
CCCC(=O)N[C@@H]1CCCC[C@@H]1Nc1nc(-c2c[nH]c3ncccc23)ncc1F (relative stereo) [Compound 342, N-[cis-2-[[5-fluoro-2-(1H-pyrrolo[2,3-b]pyridin-3-yl)pyrimidin-4-yl]amino]cyclohexyl]butanamide] | > 20 µM
O=C(N[C@@H]1CCCC[C@@H]1Nc1nc(-c2c[nH]c3ncccc23)ncc1F)C1CCCC1 (relative stereo) [Compound 343, N-[cis-2-[[5-fluoro-2-(1H-pyrrolo[2,3-b]pyridin-3-yl)pyrimidin-4-yl]amino]cyclohexyl]cyclopentanecarboxamide] | > 20 µM
O=C(N[C@@H]1CCCC[C@@H]1Nc1nc(-c2c[nH]c3ncccc23)ncc1F)c1ccccc1 (relative stereo) [Compound 344, N-[cis-2-[[5-fluoro-2-(1H-pyrrolo[2,3-b]pyridin-3-yl)pyrimidin-4-yl]amino]cyclohexyl]benzamide] | > 20 µM
CCCS(=O)(=O)N[C@@H]1CCCC[C@@H]1Nc1nc(-c2c[nH]c3ncccc23)ncc1F (relative stereo) [Compound 346, N-[cis-2-[[5-fluoro-2-(1H-pyrrolo[2,3-b]pyridin-3-yl)pyrimidin-4-yl]amino]cyclohexyl]propane-1-sulfonamide] | > 20 µM
CCCNC(=O)N[C@@H]1CCCC[C@@H]1Nc1nc(-c2c[nH]c3ncccc23)ncc1F (relative stereo) [Compound 347, 1-[cis-2-[[5-fluoro-2-(1H-pyrrolo[2,3-b]pyridin-3-yl)pyrimidin-4-yl]amino]cyclohexyl]-3-propyl-urea] | > 20 µM
CCC(=O)N[C@@H]1CCCC[C@H]1Nc1nc(-c2c[nH]c3ncc(Cl)cc23)ncc1F (relative stereo) [Compound 349, N-[trans-2-[[2-(5-chloro-1H-pyrrolo[2,3-b]pyridin-3-yl)-5-fluoro-pyrimidin-4-yl]amino]cyclohexyl]propanamide] | > 20 µM
CCCC(=O)N[C@@H]1CCCC[C@H]1Nc1nc(-c2c[nH]c3ncc(Cl)cc23)ncc1F (relative stereo) [Compound 363, N-[trans-2-[[2-(5-chloro-1H-pyrrolo[2,3-b]pyridin-3-yl)-5-fluoro-pyrimidin-4-yl]amino]cyclohexyl]butanamide] | > 20 µM
O=C(N[C@@H]1CCCC[C@H]1Nc1nc(-c2c[nH]c3ncc(Cl)cc23)ncc1F)c1ccccc1 (relative stereo) [Compound 365, N-[trans-2-[[2-(5-chloro-1H-pyrrolo[2,3-b]pyridin-3-yl)-5-fluoro-pyrimidin-4-yl]amino]cyclohexyl]benzamide] | > 20 µM
CCCS(=O)(=O)N[C@@H]1CCCC[C@H]1Nc1nc(-c2c[nH]c3ncc(Cl)cc23)ncc1F (relative stereo) [Compound 367, N-[trans-2-[[2-(5-chloro-1H-pyrrolo[2,3-b]pyridin-3-yl)-5-fluoro-pyrimidin-4-yl]amino]cyclohexyl]propane-1-sulfonamide] | 5 to 20 µM
CCCNC(=O)N[C@@H]1CCCC[C@H]1Nc1nc(-c2c[nH]c3ncc(Cl)cc23)ncc1F (relative stereo) [Compound 368, 1-[trans-2-[[2-(5-chloro-1H-pyrrolo[2,3-b]pyridin-3-yl)-5-fluoro-pyrimidin-4-yl]amino]cyclohexyl]-3-propyl-urea] | > 20 µM
CNC(=O)N[C@@H]1CCCC[C@@H]1Nc1nc(-c2c[nH]c3ncc(Cl)cc23)ncc1F (relative stereo) [Compound 430, 1-[cis-2-[[2-(5-chloro-1H-pyrrolo[2,3-b]pyridin-3-yl)-5-fluoro-pyrimidin-4-yl]amino]cyclohexyl]-3-methyl-urea] | < 5 µM
CN(C)C(=O)N[C@@H]1CCCC[C@@H]1Nc1nc(-c2c[nH]c3ncc(Cl)cc23)ncc1F (relative stereo) [Compound 431, 3-[cis-2-[[2-(5-chloro-1H-pyrrolo[2,3-b]pyridin-3-yl)-5-fluoro-pyrimidin-4-yl]amino]cyclohexyl]-1,1-dimethyl-urea] | < 5 µM
COC(=O)N[C@@H]1CCCC[C@@H]1Nc1nc(-c2c[nH]c3ncc(Cl)cc23)ncc1F (relative stereo) [Compound 432, Methyl N-[cis-2-[[2-(5-chloro-1H-pyrrolo[2,3-b]pyridin-3-yl)-5-fluoro-pyrimidin-4-yl]amino]cyclohexyl]carbamate] | > 20 µM

Same assay, conditions: MDCK cells infected with A/PR/8/34, cell protection (CPE); read-out: IC50 (mean all)

Molecule | IC50
NC1CCCCC1Nc1nc(-c2c[nH]c3ncccc23)ncc1F (stereo not shown) [Compound 4, N1-(5-fluoro-2-(1H-pyrrolo[2,3-b]pyridin-3-yl)pyrimidin-4-yl)cyclohexane-1,2-diamine] | > 20 µM

Same assay, conditions: read-out: IC50

Molecule | IC50
1-[trans-2-[[2-(5-chloro-1H-pyrrolo[2,3-b]pyridin-3-yl)-5-fluoro-pyrimidin-4-yl]amino]cyclohexyl]-3-propyl-urea [Compound 350] | 5 to 20 µM
